According to article PMC12122562, “Phase 1 studies of the indenoisoquinolines LMP776 and LMP744 in patients with solid tumors and lymphomas” (Cancer Chemotherapy and Pharmacology, 2025):

Legend:
Format in all cases: in vivo, human
RAD51 = assay: qIF of paired tumor biopsies: nuclear RAD51 foci
Description: (§1) The LMP744 protocol collected pre-treatment (baseline) and on-treatment paired biopsies from patients in the expansion cohort. Core needle tumor biopsies (18-gauge) were collected and flash-frozen at point of collection per NCI SOPs (https://dctd.cancer.gov/ResearchResources/biomarkers/docs/par/SOP340507_Biopsy_Frozen.pdf) as described to preserve labile post-translational modifications such as phosphorylation. Biopsy pairs were thawed in formalin, fixed in paraffin embedded together with control tissues following NCI SOP340550 (https://dctd.cancer.gov/ResearchResources/biomarkers/DDR3/SOP340550_Biopsy_Section_Testis_Jejunum_Controls.pdf). TOP1 and TOP1cc were measured with a cocktail containing custom-conjugated rabbit monoclonal antibody anti-TOP1-DIG (Abcam, EPR5376 (2)) and mouse monoclonal antibody anti-TOP1cc (clone 1.1A [34, 35], EMD Millipore) that were detected with reporter secondary antibodies AlexaFluor-647 IgG fraction monoclonal mouse anti-digoxin (Jackson ImmunoResearch) and goat/anti-mouse AlexaFluor-488, respectively. Phosphorylated KAP1 (pKAP1, phosphorylated at S824) was measured using custom-conjugated pKAP1-pS824-DNP (Abcam, EPR5248) and detected with AlexaFluor-488 conjugated with anti-dinitrophenyl-KLH rabbit IgG Antibody Fraction (DNP-488, ThermoFisher). […]

γH2AX = assay: qIF of paired tumor biopsies: nuclear γH2AX
Description: The LMP744 protocol collected pre-treatment (baseline) and on-treatment paired biopsies from patients in the expansion cohort. Core needle tumor biopsies (18-gauge) were collected and flash-frozen at point of collection per NCI SOPs (https://dctd.cancer.gov/ResearchResources/biomarkers/docs/par/SOP340507_Biopsy_Frozen.pdf) as described to preserve labile post-translational modifications such as phosphorylation. Biopsy pairs were thawed in formalin, fixed in paraffin embedded together with control tissues following NCI SOP340550 (https://dctd.cancer.gov/ResearchResources/biomarkers/DDR3/SOP340550_Biopsy_Section_Testis_Jejunum_Controls.pdf). TOP1 and TOP1cc were measured with a cocktail containing custom-conjugated rabbit monoclonal antibody anti-TOP1-DIG (Abcam, EPR5376 (2)) and mouse monoclonal antibody anti-TOP1cc (clone 1.1A [34, 35], EMD Millipore) that were detected with reporter secondary antibodies AlexaFluor-647 IgG fraction monoclonal mouse anti-digoxin (Jackson ImmunoResearch) and goat/anti-mouse AlexaFluor-488, respectively. Phosphorylated KAP1 (pKAP1, phosphorylated at S824) was measured using custom-conjugated pKAP1-pS824-DNP (Abcam, EPR5248) and detected with AlexaFluor-488 conjugated with anti-dinitrophenyl-KLH rabbit IgG Antibody Fraction (DNP-488, ThermoFisher). […] TOP1, γH2AX, pNBS1, and pKAP1 were measured as the percentage of DAPI-stained tumor cell nuclear area that was positive for the biomarker (% NAP); RAD51 [19] and TOP1cc was measured as a function of the percentage of nuclei with ≥ 5 foci (RAD51) or ≥ 19 foci (TOP1cc). Apoptosis was measured using a validated IFA of tumor cells positive for both cCasp3 blebbing in the cytoplasm and γH2AX in the nucleus. Anti-SLFN11 rabbit monoclonal antibody (Cell Signaling Technology, clone D8W1B) was detected by immunohistochemistry (IHC) using Bond Polymer Detection kit (Leica) and scanned in 20X widefield Aperio (Leica), and the distribution of staining intensity of tumor cell nuclei graded as 0, 1 + , 2 + or 3 + was converted into an H-score. […]

[1] = tested on: advanced, refractory solid tumors or lymphomas; assay: Phase 1 trial of LMP744: tumor response (RECIST v1.1), cycles completed
Description: (§2) Tumor responses were evaluated by serial CT scans according to RECIST v1.1 criteria. CT scans were performed every other cycle during the first year, then every 3 cycles after the first year. Toxicities associated with LMP776 were evaluated according to criteria specified in CTCAE version 4.0; toxicities associated with LMP744 were evaluated according to the criteria specified in CTCAE version 4.03 (on or before March 31, 2018) or version 5.0 (on or after April 1, 2018). Criteria for all versions can be found at https://ctep.cancer.gov/protocolDevelopment/electronic_applications/ctc.htm. Any patient who received a dose of either agent was considered eligible for toxicity evaluation.

pNBS1 = assay: qIF of paired tumor biopsies: nuclear pNBS1; conditions: 6 patients at MTD; assay values never ≥ 4% NAP
Description: as §1

[2] = tested on: advanced, refractory solid tumors or lymphomas; assay: Phase 1 trial of LMP776: tumor response (RECIST v1.1), cycles completed
Description: as §2

SMILES | Patients with significant drug-induced increases in nuclear RAD51 (RAD51; MTD, C1D2, p = 0.0091 for group effect) | Nuclear RAD51 response (RAD51; patient 29, MTD, C1D2) | γH2AX, cohort mean treatment effect (γH2AX; 6 patients at MTD, P = 0.1715) | Nuclear γH2AX in tumor cells on treatment (γH2AX; patient 29 (SCLC, cPR) only, MTD, C1D2 2–4 h after dosing) | Pharmacodynamic responses in tumor biopsies (γH2AX; patient with cPR) | Overall response rate ([1]; 35 patients) [%] | Patients with a partial response (one confirmed) ([1]; in vivo) | Patients with stable disease for ≥ 3 cycles ([1]; in vivo) | Cycles of treatment completed with SD ([1]; patient 10, low-grade appendiceal mucinous neoplasm) [cycles] | pNBS1 pharmacodynamic response (pNBS1) | Objective responses ([2]; RECIST v1.1, n = 34) | Best response ([2]; in vivo) | Longest duration of SD ([2]; patient 45, pancreatic cancer) [cycles]
COc1cc2c3c(n(CCCNCCO)c(=O)c2cc1OC)-c1cc2c(cc1C3=O)OCO2 [LMP744] | 4 of 6 | at least 5 % of cells with ≥ 5 foci | overall lack of treatment effect within the cohort | above 4 % NAP | increased RAD51, phosphorylated KAP1 (pKAP1), γH2AX, and cleaved caspase-3 (cCasp3) | 3 | Two | 12 | 31 | failed to elicit a pNBS1 pharmacodynamic response |  |  | 
COc1cc2c3c(n(CCCn4ccnc4)c(=O)c2cc1OC)-c1cc2c(cc1C3=O)OCO2 [LMP776] |  |  |  |  |  |  |  |  |  |  | no objective responses were measured | stable disease | 9
